One test deals with T1, PKAα (Homo sapiens, UniProt P17612).
T1 construct: purchased Eurofins
Description: Kinase selectivity profiling (Eurofins), PKAα. In kind it is biochemical. The text has this: (§1) The results of this screening were mapped over the annotated human kinome phylogenetic tree using Kinome Render (Figure 2).
(§2) Kinases inhibited less than 25% have their names in green text. Kinases inhibited >25% and ≤50% have yellow circles, >50% and ≤75% have orange circles, and >75% have red circles. In each case, the size of the circle is proportional to the percentage inhibition. ROCK1 and MRCKα positions are indicated on the tree for orientation purposes. Illustration reproduced courtesy of Cell Signaling Technology, Inc. (www.cellsignal.com).
(§3) MRCKα, MRCKβ, ROCK1 and ROCK2 assays were performed using an IMAP fluorescence polarization assay format (Molecular Devices Inc.). 8–12 nM of each kinase (Life Technologies) was incubated for 60 min at room temperature with 100 nM FAM-S6-ribosomal protein derived peptide (synthesized by Alta Biosciences, University of Birmingham UK) in the presence of 1 μM ATP and 0.5 mM MgCl2 in 20 mM Tris buffer (pH 7.4) containing 0.01% Tween-20 and 1 mM DTT (MRCKα and β); or 1 μM ATP, 10 mM MgCl2 in 20 mM Tris buffer (pH 7.5) containing 0.25 mM EGTA 0.01% Triton X-100 and 1 mM DTT (ROCK1 and ROCK2). […] After 30 min incubation to allow binding reagent to bind phosphorylated peptide, fluorescence polarization was measured on a Tecan Saphire^2 plate reader at excitation (470 nm) and emission (530 nm) wavelengths. […]

The target in the next test is T2, PhKγ2 (Homo sapiens, UniProt P15735).
T2 construct: purchased Eurofins
T2 sequence (P15735 1-406): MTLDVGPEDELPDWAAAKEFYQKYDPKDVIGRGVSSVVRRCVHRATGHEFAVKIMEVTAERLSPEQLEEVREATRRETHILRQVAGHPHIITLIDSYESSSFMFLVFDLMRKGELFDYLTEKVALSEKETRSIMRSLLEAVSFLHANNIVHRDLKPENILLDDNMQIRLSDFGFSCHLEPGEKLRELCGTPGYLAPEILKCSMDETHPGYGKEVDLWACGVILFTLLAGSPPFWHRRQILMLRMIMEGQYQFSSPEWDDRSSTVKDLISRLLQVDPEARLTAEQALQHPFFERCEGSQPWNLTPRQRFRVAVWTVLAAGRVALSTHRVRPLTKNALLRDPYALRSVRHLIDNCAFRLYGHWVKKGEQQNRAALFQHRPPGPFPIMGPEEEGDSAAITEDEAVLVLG
As to the kind of experiment: Kinase selectivity profiling (Eurofins), PhKγ2. Format: biochemical.
From the text: as §1, §2, §3

The test system of test [1] is MLC phosphorylation in SCC12 cells. Description: MLC phosphorylation in SCC12 squamous cell carcinoma cells (quantitative western blot). Format: cell-based, human. The method, then:
All results are shown as mean ± standard error of n = 3 independent replicates. […] Readings were compared to the Alamar Blue metabolism in DMSO treated cells that were used as the viability standard of 100% for each replicate experiment. […] (F) Number of invading cells was determined in 5 random fields for each condition for each separate replicate experiment. All results are shown as mean ± standard error of n ≥ 3 independent replicates.
Cell lysates were prepared as described previously. For pMLC western blots, cells were lysed in a 1% (w/v) SDS, 50 mM Tris pH 7.5 buffer and lysates were passed through QIAshredder columns (Qiagen, 79654). Alternatively, for pMLC western blots lysates were prepared in lysis buffer with 50 mM Tris (pH7.5), 0.5% (w/v) SDS, supplemented with Complete Protease and PhosSTOP inhibitors (Roche). Whole cell lysates were separated by SDS-PAGE, transferred to Protran nitrocellulose membranes (Whatman), probed with primary antibodies and appropriate IR dye-conjugated secondary antibodies. Blots were visualized using a Licor Odyssey according to manufacturer’s instructions. […]

The target of another test is T3, MRCKβ (Homo sapiens, UniProt Q9Y5S2).
T3 construct: purchased Life Technologies
T3 sequence (Q9Y5S2 whole entry): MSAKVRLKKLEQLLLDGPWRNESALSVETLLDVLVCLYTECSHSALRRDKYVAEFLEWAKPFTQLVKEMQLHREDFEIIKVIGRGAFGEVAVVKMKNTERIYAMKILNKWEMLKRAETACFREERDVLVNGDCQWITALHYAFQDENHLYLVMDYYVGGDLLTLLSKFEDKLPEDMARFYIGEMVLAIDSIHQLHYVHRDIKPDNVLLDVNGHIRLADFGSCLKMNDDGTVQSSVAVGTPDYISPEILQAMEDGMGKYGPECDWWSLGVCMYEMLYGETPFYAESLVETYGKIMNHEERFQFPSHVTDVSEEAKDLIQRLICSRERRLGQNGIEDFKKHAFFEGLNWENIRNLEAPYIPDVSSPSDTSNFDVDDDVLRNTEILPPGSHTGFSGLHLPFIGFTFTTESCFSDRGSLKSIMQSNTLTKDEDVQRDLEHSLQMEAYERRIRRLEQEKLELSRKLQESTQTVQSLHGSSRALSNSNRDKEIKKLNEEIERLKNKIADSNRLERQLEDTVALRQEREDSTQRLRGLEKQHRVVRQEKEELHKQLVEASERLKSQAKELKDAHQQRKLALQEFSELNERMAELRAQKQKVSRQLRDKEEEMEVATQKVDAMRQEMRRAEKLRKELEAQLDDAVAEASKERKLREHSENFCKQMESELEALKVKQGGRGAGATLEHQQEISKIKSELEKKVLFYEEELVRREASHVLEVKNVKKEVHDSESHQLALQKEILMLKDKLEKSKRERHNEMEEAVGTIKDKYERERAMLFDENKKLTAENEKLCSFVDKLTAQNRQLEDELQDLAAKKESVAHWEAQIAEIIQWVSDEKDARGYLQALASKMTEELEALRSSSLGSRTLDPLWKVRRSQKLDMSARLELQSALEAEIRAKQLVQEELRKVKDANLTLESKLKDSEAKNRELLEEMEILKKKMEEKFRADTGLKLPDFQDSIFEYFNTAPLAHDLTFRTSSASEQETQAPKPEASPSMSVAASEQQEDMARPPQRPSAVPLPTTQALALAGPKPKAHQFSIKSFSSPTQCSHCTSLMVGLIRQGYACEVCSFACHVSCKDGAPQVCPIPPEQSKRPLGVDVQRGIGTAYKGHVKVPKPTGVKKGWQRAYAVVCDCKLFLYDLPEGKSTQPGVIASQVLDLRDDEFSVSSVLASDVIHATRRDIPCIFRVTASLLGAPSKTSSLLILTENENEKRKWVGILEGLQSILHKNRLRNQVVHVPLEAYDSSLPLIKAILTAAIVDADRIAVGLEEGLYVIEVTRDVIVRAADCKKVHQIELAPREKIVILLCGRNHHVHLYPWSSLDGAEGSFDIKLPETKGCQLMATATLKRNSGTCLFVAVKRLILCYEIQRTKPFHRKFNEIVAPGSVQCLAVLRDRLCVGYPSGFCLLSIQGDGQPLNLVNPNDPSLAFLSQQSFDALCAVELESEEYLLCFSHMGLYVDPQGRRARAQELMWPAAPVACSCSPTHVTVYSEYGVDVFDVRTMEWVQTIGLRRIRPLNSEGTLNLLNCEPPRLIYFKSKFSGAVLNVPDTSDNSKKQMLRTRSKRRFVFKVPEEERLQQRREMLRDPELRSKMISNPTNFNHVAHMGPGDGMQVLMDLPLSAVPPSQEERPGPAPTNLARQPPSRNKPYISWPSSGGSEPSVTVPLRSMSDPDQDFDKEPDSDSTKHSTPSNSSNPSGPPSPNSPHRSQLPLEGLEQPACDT
Description: IMAP fluorescence polarization kinase assay, MRCKβ. Format: biochemical. As to conditions: in vitro, 1 μM ATP. The protocol: MRCKα, MRCKβ, ROCK1 and ROCK2 assays were performed using an IMAP fluorescence polarization assay format (Molecular Devices Inc.). 8–12 nM of each kinase (Life Technologies) was incubated for 60 min at room temperature with 100 nM FAM-S6-ribosomal protein derived peptide (synthesized by Alta Biosciences, University of Birmingham UK) in the presence of 1 μM ATP and 0.5 mM MgCl2 in 20 mM Tris buffer (pH 7.4) containing 0.01% Tween-20 and 1 mM DTT (MRCKα and β); or 1 μM ATP, 10 mM MgCl2 in 20 mM Tris buffer (pH 7.5) containing 0.25 mM EGTA 0.01% Triton X-100 and 1 mM DTT (ROCK1 and ROCK2). Typically, dose response analyses were performed over concentration ranges from 0.005 - 100 μM. Reactions were stopped by adding 2 assay volumes of 0.25% (v/v) IMAP binding reagent in 1× IMAP binding buffer A (Molecular Devices). After 30 min incubation to allow binding reagent to bind phosphorylated peptide, fluorescence polarization was measured on a Tecan Saphire^2 plate reader at excitation (470 nm) and emission (530 nm) wavelengths. Inhibition was calculated using no inhibitor and no enzyme controls as 0 and 100% inhibition, respectively.

This is an account of results in article PMC4195943, “A novel small-molecule MRCK inhibitor blocks cancer cell invasion” (Cell Communication and Signaling : CCS, 2014).

Bounds are passed on as bounds.

Turning to `O=C(Nc1cn[nH]c1-c1ccccn1)c1nn(C2CCNCC2)cc1Cl` [BDP5290, 4-chloro-1-(4-piperidyl)-N-[5-(2-pyridyl)-1H-pyrazol-4-yl]pyrazole-3-carboxamide], the inhibition at 10 µM against PKAα and on PhKγ2 was over 75% throughout.

As for `C[C@@H](N)[C@H]1CC[C@H](C(=O)Nc2ccncc2)CC1` [Y27632, reference compound], the “phosphorylated MLC at higher doses in SCC12 cells” value in test [1] is “residual phosphorylated MLC”. Besides, the IC50 against MRCKβ was 1.45 µM.
